This passage reports MIC and Activity results from ChEMBL document CHEMBL4138144, “Biochemometrics to Identify Synergists and Additives from Botanical Medicines: A Case Study with Hydrastis canadensis (Goldenseal)” (J Nat Prod, 2018).

Each structure is given as a SMILES string. Active and inactive are the calls of the source.

For experiment [1], the system named is Staphylococcus aureus. The experiment can be described thus: Potentiation of berberin induced antibacterial activity against Staphylococcus aureus SA1199 assessed as berberin MIC at 200 uM (reference value: 238 microM). The format is functional.
For experiment [2], the system named is Staphylococcus aureus. The experiment can be described thus: Antibacterial activity against Staphylococcus aureus SA1199 at 201.4 to 402.8 uM after 18 hrs by CLSI method. The format is functional, organism-based.
Experiment [3] relates to Staphylococcus aureus. The experiment in a line: Potentiation of berberin induced antibacterial activity against Staphylococcus aureus SA1199 assessed as berberin MIC at 201.4 uM (reference value: 238 microM). The format is functional.

For the compound `O=C(/C=C/C=C/c1ccc2c(c1)OCO2)N1CCCCC1` [PIPERINE], in the experiment with Staphylococcus aureus [1], the minimum inhibitory concentration (MIC) was 119 µM.

With `COc1ccc(-c2oc3c(C)c(OC)c(C)c(OC)c3c(=O)c2O)cc1O`, the outcome in the experiment with Staphylococcus aureus [2] was inactive. Also, in the experiment with Staphylococcus aureus [3], the MIC is 179 µM.

By MIC is commonly meant the smallest concentration in the dilution series that meets the test's criterion for growth inhibition.
